Experimental data taken from ChEMBL document CHEMBL5126595, “Identification and anti-tumor evaluation of 3-acyl-indol-based 2,4-diarylaminopyrimidine analogues as potent ALK inhibitors capable of overcoming drug-resistant mutants” (Eur J Med Chem, 2022).
Calls of active or inactive are those of the source. No cut-off for these calls is given here.

Assays:
BaF3 = experiment: Antiproliferative activity IL3 […] Ba/F3 cells assessed as inhibition of cell growth incubated for 72 hrs by MTT assay; format: functional, cell-based; settings: Mus musculus, BaF3, 72 h
[1] = Cmax in Sprague-Dawley rat at 10 mg/kg, po by LC-MS/MS analysis; format: ADME, organism-based; set-up: dose 10 mg/kg, route po; settings: in vivo
[2] = Metabolic stability in Sprague-Dawley rat liver microsomes assessed as parent compound remaining preincubated for 5 mins in the presence of NADPH followed by microsomal addition and measured upto 60 mins by HPLC analysis; format: ADME, Microsome; settings: time < 65 min, read-out: Stability
[3] = biological target: T1, ALK tyrosine kinase receptor (Homo sapiens, UniProt Q9UM73); experiment: Inhibition of N-terminal GST-tagged human wild type ALK (1058 to 1620 residues) cytoplasmic domain expressed in baculovirus infected Sf21 cells incubated for 1 hrs in the presence of ATP by mobility shift assay
Target sequence in this assay (Q9UM73 whole entry, the tested form may be a part): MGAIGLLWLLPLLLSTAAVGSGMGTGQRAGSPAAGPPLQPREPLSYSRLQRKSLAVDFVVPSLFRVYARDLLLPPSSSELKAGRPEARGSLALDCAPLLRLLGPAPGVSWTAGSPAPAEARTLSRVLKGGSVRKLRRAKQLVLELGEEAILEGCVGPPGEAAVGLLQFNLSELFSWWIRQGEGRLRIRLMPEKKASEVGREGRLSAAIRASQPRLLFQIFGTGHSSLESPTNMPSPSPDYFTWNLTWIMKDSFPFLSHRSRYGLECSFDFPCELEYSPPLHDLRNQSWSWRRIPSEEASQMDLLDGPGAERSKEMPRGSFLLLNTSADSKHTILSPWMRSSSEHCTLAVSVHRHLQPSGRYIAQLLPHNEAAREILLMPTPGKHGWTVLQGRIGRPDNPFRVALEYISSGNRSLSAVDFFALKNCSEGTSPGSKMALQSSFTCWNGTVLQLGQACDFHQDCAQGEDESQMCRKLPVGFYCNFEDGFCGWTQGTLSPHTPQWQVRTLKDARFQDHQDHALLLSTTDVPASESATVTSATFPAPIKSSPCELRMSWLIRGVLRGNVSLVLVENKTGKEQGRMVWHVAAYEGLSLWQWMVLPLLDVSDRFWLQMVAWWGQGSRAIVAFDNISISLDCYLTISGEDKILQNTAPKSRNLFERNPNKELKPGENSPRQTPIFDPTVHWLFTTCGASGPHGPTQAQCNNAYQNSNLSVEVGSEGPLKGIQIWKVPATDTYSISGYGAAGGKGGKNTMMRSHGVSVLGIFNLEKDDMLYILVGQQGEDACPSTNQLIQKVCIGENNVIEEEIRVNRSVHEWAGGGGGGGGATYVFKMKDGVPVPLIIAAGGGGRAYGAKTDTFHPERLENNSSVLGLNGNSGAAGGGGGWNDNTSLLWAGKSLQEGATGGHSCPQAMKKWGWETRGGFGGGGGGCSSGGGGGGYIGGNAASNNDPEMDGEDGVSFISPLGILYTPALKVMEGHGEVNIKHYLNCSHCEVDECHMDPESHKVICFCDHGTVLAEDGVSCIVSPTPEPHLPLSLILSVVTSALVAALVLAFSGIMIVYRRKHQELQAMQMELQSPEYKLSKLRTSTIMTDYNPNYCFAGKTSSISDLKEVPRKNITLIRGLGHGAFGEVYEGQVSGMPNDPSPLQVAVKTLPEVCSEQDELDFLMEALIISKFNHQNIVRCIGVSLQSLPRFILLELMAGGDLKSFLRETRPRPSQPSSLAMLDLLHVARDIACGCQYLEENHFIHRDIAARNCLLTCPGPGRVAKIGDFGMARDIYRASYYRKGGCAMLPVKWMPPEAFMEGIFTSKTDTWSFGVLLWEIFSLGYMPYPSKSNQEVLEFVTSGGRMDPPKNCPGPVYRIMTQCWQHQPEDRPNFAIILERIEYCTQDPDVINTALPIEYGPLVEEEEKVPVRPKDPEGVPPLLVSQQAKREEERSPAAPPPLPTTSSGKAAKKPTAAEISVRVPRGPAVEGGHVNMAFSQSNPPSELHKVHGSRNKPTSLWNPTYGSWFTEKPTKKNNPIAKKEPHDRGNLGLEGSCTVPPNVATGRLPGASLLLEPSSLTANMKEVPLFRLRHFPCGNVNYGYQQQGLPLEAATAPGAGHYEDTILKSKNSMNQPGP

NCI-H2228 [4] = experiment: Induction of apoptosis in human NCI-H2228 cells assessed as orange red fluorescence at 25 to 100 nM incubated for 48 hrs by AO/EB staining based fluorescence microscopic analysis; format: functional, cell-based; settings: dose 25-100 nM
NCI-H2228 [5] = experiment: Induction of apoptosis in human NCI-H2228 cells assessed as total apoptotic cells at 50 nM incubated for 48 hrs by AnnexinV-FITC/propidium iodide staining based flow cytometry analysis; format: functional
A549 = experiment: Antiproliferative activity against EGFR positive human A549 cells assessed as inhibition of cell growth incubated for 72 hrs by MTT assay; format: functional, cell-based; settings: A549, 72 h
[6] = Oral bioavailability in Sprague-Dawley rat at 10 mg/kg by LC-MS/MS analysis; format: ADME, organism-based; settings: in vivo
KARPAS-299 = experiment: Antiproliferative activity against NPM-ALK positive human KARPAS-299 cells assessed as inhibition of cell growth incubated for 72 hrs by MTT assay; format: functional, cell-based; settings: KARPAS-299, 72 h
NCI-H2228 [7] = experiment: Induction of apoptosis in human NCI-H2228 cells assessed as chromatin condensation by measuring brilliant blue fluorescence at 25 to 100 nM incubated for 48 hrs by Hoechst 33342 staining based fluorescence microscopic analysis; format: functional, cell-based; settings: dose 25-100 nM
[8] = AUC (0 to infinity) in Sprague-Dawley rat at 10 mg/kg, po by LC-MS/MS analysis; format: ADME, organism-based; set-up: time infinity, dose 10 mg/kg, route po; settings: in vivo
NCI-H2228 [9] = experiment: Induction of cell cycle arrest in human NCI-H2228 cells assessed as increase in G1 phase cells at 100 nM incubated for 48 hrs by PI/RNase staining based flow cytometry analysis (reference value: 49.72 %); format: functional
NCI-H2228 [10] = experiment: Inhibition of colony formation in human NCI-H2228 cells assessed as reduction in colony area at 50 nM incubated for 3 day by crystal violet staining based assay; format: functional; settings: NCI-H2228, 72 h
NCI-H2228 [11] = experiment: Induction of apoptosis in human NCI-H2228 cells assessed as viable cells at 100 nM incubated for 48 hrs by AnnexinV-FITC/propidium iodide staining based flow cytometry analysis (reference value: 92.3 %); format: functional; settings: read-out: Activity
[12] = Metabolic stability in Sprague-Dawley rat liver microsomes assessed as parent compound remaining measured upto 60 mins by HPLC analysis; format: ADME, Microsome; settings: read-out: Stability
NCI-H2228 [13] = experiment: Antiproliferative activity against EML4-ALK positive human NCI-H2228 cells assessed as inhibition of cell growth incubated for 72 hrs by MTT assay; format: functional, cell-based; settings: NCI-H2228, 72 h
HCT-116 = experiment: cells; settings: Homo sapiens, HCT-116, 72 h
Description: Antiproliferative activity against human HCT-116 cells assessed as inhibition of cell growth incubated for 72 hrs by MTT assay

[14] = MRT in Sprague-Dawley rat at 2 mg/kg, iv by LC-MS/MS analysis; format: ADME, organism-based; settings: in vivo
[15] = Antiproliferative activity […] EML4-ALK-L1196M cells assessed as inhibition of cell growth incubated for 72 hrs by MTT assay; format: functional, cell-based
NCI-H2228 [16] = experiment: Induction of cell cycle arrest in human NCI-H2228 cells assessed as decrease in G2 phase cells at 50 nM incubated for 48 hrs by PI/RNase staining based flow cytometry analysis (reference value: 15.38 %); format: functional; set-up: scale not given: the % may be the effect or the level left
[17] = biological target: ALK tyrosine kinase receptor (Homo sapiens, UniProt Q9UM73, G1202R); experiment: Inhibition of N-terminal GST-tagged human ceritinib-resistant ALK G1202R mutant (1058 to 1620 residues) cytoplasmic domain expressed in baculovirus infected Sf21 cells incubated for 1 hrs in the presence of ATP by mobility shift assay
NCI-H2228 [18] = experiment: Antitumor activity against human NCI-H2228 cells xenografted in BALB/c nude mouse assessed as tumor growth inhibition at 50 mg/kg, IG administered every 2 days for 7 times relative to control; format: functional; settings: NCI-H2228, po, 336 h, time 14 day, read-out: TGI
[19] = Half-life in Sprague-Dawley rat at 2 mg/kg, iv by LC-MS/MS analysis; format: ADME, organism-based; settings: in vivo
NCI-H2228 [20] = experiment: Induction of cell cycle arrest in human NCI-H2228 cells assessed as decrease in S phase cells at 25 nM incubated for 48 hrs by PI/RNase staining based flow cytometry analysis (reference value: 34.90 %); format: functional; set-up: scale not given: the % may be the effect or the level left
NCI-H2228 [21] = experiment: Induction of cell cycle arrest in human NCI-H2228 cells assessed as decrease in G2 phase cells at 25 nM incubated for 48 hrs by PI/RNase staining based flow cytometry analysis (reference value: 15.38 %); format: functional; set-up: scale not given: the % may be the effect or the level left
NCI-H2228 [22] = experiment: Inhibition of cell migration in human NCI-H2228 cells at 10 nM measured at 24 hrs by inverted microscopic based cell scratch assay relative to control; format: functional
[23] = biological target: T1, ALK tyrosine kinase receptor; experiment: Inhibition of ALK downstream signalling in human NCI-H2228 cells assessed as reduction in phosphorylated ERK level measured after 24 hrs by Western blot analysis; format: cell-based; settings: dose 25-100 nM, DDE = dose-dependent effect
Target sequence in this assay (Q9UM73 19-1620 limits assumed): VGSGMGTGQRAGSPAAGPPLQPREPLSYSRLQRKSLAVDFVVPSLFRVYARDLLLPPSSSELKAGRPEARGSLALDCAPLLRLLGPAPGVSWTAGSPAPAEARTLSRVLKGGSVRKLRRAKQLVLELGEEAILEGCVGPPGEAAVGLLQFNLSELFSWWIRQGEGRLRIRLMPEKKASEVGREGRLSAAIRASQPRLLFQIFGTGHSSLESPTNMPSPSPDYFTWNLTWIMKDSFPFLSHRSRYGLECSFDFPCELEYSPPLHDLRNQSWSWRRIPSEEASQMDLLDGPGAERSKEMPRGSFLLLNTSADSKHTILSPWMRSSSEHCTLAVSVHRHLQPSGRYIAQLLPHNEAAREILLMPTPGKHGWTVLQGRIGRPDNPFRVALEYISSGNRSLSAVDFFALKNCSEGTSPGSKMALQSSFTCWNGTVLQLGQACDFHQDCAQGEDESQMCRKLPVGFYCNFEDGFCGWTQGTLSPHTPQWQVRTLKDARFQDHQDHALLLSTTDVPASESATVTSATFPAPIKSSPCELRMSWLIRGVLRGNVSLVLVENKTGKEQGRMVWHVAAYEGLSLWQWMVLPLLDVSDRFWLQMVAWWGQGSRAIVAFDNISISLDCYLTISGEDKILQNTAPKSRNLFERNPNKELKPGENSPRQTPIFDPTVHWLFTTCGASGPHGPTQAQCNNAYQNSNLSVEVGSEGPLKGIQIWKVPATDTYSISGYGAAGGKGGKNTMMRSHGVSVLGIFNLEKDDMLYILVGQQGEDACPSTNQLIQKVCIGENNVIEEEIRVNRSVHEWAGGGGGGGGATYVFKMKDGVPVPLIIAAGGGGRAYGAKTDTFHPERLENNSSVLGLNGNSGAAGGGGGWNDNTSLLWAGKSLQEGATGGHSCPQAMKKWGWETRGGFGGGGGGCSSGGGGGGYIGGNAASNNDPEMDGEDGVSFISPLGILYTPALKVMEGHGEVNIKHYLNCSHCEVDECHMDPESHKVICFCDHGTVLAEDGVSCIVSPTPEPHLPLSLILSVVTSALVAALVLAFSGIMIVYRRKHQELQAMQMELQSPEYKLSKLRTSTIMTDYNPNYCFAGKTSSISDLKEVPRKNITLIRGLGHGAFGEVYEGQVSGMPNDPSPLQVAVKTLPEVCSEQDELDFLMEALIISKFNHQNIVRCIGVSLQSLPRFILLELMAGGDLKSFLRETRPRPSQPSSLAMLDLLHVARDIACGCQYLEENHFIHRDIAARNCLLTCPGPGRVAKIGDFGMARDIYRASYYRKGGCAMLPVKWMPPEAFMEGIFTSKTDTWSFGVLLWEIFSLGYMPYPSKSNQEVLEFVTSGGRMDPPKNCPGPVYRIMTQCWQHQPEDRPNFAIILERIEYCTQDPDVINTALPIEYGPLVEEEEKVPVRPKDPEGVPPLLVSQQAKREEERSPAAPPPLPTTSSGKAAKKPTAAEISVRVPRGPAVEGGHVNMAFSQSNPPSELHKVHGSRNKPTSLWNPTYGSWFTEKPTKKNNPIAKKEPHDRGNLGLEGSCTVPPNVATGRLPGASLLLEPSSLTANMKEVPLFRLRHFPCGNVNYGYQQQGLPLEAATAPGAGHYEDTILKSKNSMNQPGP

Hep 3B2 = experiment: cells; settings: Homo sapiens, Hep3B, 72 h
Description: Antiproliferative activity against human Hep3B cells assessed as inhibition of cell growth incubated for 72 hrs by MTT assay

[24] = Toxicity in BALB/c nude mouse xenografted with human NCI-H2228 cells assessed as effect on body weight at 25 to 50 mg/kg, IG administered every 2 days for 7 times; format: organism-based; settings: in vivo, po, 48 h, dose 25-50 mg/kg, time 2 day
NCI-H2228 [25] = experiment: Induction of apoptosis in human NCI-H2228 cells assessed as total apoptotic cells at 100 nM incubated for 48 hrs by AnnexinV-FITC/propidium iodide staining based flow cytometry analysis; format: functional
NCI-H1581 = experiment: Antiproliferative activity against human NC-H1581 cells assessed as inhibition of cell growth incubated for 72 hrs by MTT assay; format: functional, cell-based; settings: NCI-H1581, 72 h
NCI-H2228 [26] = experiment: Induction of cell cycle arrest in human NCI-H2228 cells assessed as decrease in G2 phase cells at 100 nM incubated for 48 hrs by PI/RNase staining based flow cytometry analysis (reference value: 15.38 %); format: functional; set-up: scale not given: the % may be the effect or the level left
NCI-H2228 [27] = experiment: Induction of apoptosis in human NCI-H2228 cells assessed as early apoptotic cells by measuring bright green fluorescence at 25 nM incubated for 48 hrs by AO/EB staining based fluorescence microscopic analysis; format: functional, cell-based
[28] = Antiproliferative activity against human HEK293T cells assessed as inhibition of cell growth incubated for 72 hrs by MTT assay; format: toxicity, cell-based, HEK-293T
NCI-H2228 [29] = experiment: Induction of apoptosis in human NCI-H2228 cells assessed as late apoptotic cells at 25 nM incubated for 48 hrs by AnnexinV-FITC/propidium iodide staining based flow cytometry analysis (reference value: 4.72 %); format: functional

Chain of ALK tyrosine kinase receptor (Homo sapiens, UniProt Q9UM73, G1202R) (Q9UM73 19-1620 G1202R limits assumed): as the sequence (Q9UM73 19-1620 limits assumed) above, with G1184R counted along it

Compound `CNC(=O)c1ccccc1Nc1nc(Nc2ccc3c(C(=O)N(C)C)c(C)[nH]c3c2)ncc1Cl` has an IC50 (BaF3) greater than 1000 nM, a Cmax [1] of 346 ng/mL and a remaining at 1 h [2] of 29.7%. For the same compound, the IC50 [3] was 2.3 nM, the Activity (NCI-H2228 [4]) was “Active” and the Activity (NCI-H2228 [5]) was 23.94%. It also gave an IC50 (A549) of 2390 nM, a bioavailability [6] of 38.2% and an IC50 (KARPAS-299) of 11 nM. For the same compound, the Activity (NCI-H2228 [7]) was “Active”, the AUC(0-inf) [8] was 1760 ng·h/mL and the Activity (NCI-H2228 [9]) was 58.51%. It also gave an inhibition at 0.05 µM (NCI-H2228 [10]) of 50%, a viability at 0.1 µM (NCI-H2228 [11]) of 68.6% and a remaining at 1 h [12] of 90%. The IC50 (NCI-H2228 [13]) was 37 nM, the IC50 (HCT-116) was 1340 nM and the MRT [14] was 3.5 h. It also gave an IC50 [15] of 21 nM, an Activity (NCI-H2228 [16]) of 13.28% and an IC50 [17] of 2.9 nM. For the same compound, the inhibition in vivo at 50 mg/kg (NCI-H2228 [18]) was 93.5%, the half-life [19] was 2.5 h and the Activity (NCI-H2228 [20]) was 34.73%. For the same compound, the Activity (NCI-H2228 [21]) was 12.23%, the inhibition at 0.01 µM (NCI-H2228 [22]) was 3.6% and the inhibition [23] was “Dde”. The IC50 (Hep 3B2) was 59 nM, the Activity [24] was “Non-Toxic” and the Activity (NCI-H2228 [25]) was 31.7%. The IC50 (NCI-H1581) was 957 nM, the Activity (NCI-H2228 [26]) was 12.18% and the Activity (NCI-H2228 [27]) was “Active”. It also gave an IC50 at 72 h [28] greater than 10000 nM and an Activity (NCI-H2228 [29]) of 10.5%.
